Measurements as given in ChEMBL document CHEMBL1201862, “PubChem BioAssay data set” (2004).
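Results reflect a 48-hour exposure of cells in 96-well plates to compound at five concentrations. GI50 = concentration required for 50% inhibition of growth.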 Active and inactive are the calls of the source. Cut-off read from the data, not from the text of the source: active = GI50 up to about 1.1 µM and inactive = higher.

Legend:
Assay in all cases: DTP human tumour cell line panel, 48 h
LOX IMVI = test system: LOX IMVI
SNB-75 = test system: SNB-75
SF-295 = test system: SF-295
SF-539 = test system: SF-539
UO-31 = test system: UO-31
CCRF-CEM = test system: CCRF-CEM
SK-MEL-5 = test system: SK-MEL-5
Malme-3M = test system: Malme-3M
OVCAR-5 = test system: OVCAR-5
NCI-H460 = test system: NCI-H460
HL-60 = test system: HL-60
OVCAR-3 = test system: OVCAR-3
HCT-15 = test system: HCT-15
PC-3 = test system: PC-3
SR = test system: SR
HCT-116 = test system: HCT-116
SF-268 = test system: SF-268
OVCAR-8 = test system: OVCAR-8
HOP-92 = test system: HOP-92
SK-MEL-2 = test system: SK-MEL-2

Row | SMILES | GI50 (LOX IMVI) | GI50 (SNB-75) | GI50 (SF-295) | GI50 (SF-539) | GI50 (UO-31) | GI50 (CCRF-CEM) | GI50 (SK-MEL-5) | GI50 (Malme-3M) | GI50 (OVCAR-5) | GI50 (NCI-H460) | GI50 (HL-60) | GI50 (OVCAR-3) | GI50 (HCT-15) [µM] | GI50 (PC-3) | GI50 (SR) | GI50 (HCT-116) | GI50 (SF-268) | GI50 (OVCAR-8) | GI50 (HOP-92) | GI50 (SK-MEL-2)
1 | CN(C)c1ccc(/C(F)=C(F)/C(F)=C(F)/C(F)=C(\F)c2ccc(Br)cc2)cc1 | 19.8 µM (inactive) | 27.2 µM (inactive) | 6.98 µM (inactive) | 33 µM (inactive) | 25.1 µM (inactive) | 29.4 µM (inactive) | 25.3 µM (inactive) | 9.29 µM (inactive) | 23.8 µM (inactive) | 26.2 µM (inactive) | 8.97 µM (inactive) | 9.38 µM (inactive) | 13.3 | 15.2 µM (inactive) | 5 µM (inactive) | 5.33 µM (inactive) | 51.8 µM (inactive) | 33 µM (inactive) | 47.6 µM (inactive) | 25.9 µM (inactive)
2 | C/C=C/C=C/C1=NN(c2cccc(S(=O)(=O)O)c2)C2(C1)C(Cl)C(=O)N2c1nc2ccccc2s1 (stereo not given) | 7.85 µM (inactive) | 12.4 µM (inactive) | 16.3 µM (inactive) | 12.6 µM (inactive) | 2 µM (inactive) | 3.01 µM (inactive) | 12.2 µM (inactive) | 17.1 µM (inactive) | 17.4 µM (inactive) | 15.4 µM (inactive) | 15.6 µM (inactive) | 8.36 µM (inactive) | 14.5 | 13.5 µM (inactive) | 18.9 µM (inactive) | 14.4 µM (inactive) | 16.6 µM (inactive) | 22 µM (inactive) | 24.5 µM (inactive) | 15.6 µM (inactive)
3 | O=C(c1cccnc1)N1N=C(c2ccc3c(c2)OCO3)CC1(O)c1cc(F)c(Cl)cc1Cl (stereo not given) | 16.4 µM (inactive) | 15.2 µM (inactive) | 19.1 µM (inactive) | 16.7 µM (inactive) | 17.3 µM (inactive) | 19.1 µM (inactive) | 15 µM (inactive) | 23.4 µM (inactive) | 22.3 µM (inactive) | 17.4 µM (inactive) | 20.2 µM (inactive) | 11 µM (inactive) | 18 | 21.5 µM (inactive) | 14.7 µM (inactive) | 16.3 µM (inactive) | 19.9 µM (inactive) | 18.8 µM (inactive) | 20.7 µM (inactive) | 20.7 µM (inactive)
4 | COC(=O)C1C2OC(C)(C)OC2CN1S(=O)(=O)c1ccc(C)cc1 (stereo not given) | > 100 µM (inactive) | 10.9 µM (inactive) | > 100 µM (inactive) | > 100 µM (inactive) | > 100 µM (inactive) | > 100 µM (inactive) | > 100 µM (inactive) | > 100 µM (inactive) | > 100 µM (inactive) | > 100 µM (inactive) | > 100 µM (inactive) | > 100 µM (inactive) | > 100 | > 100 µM (inactive) | > 100 µM (inactive) | > 100 µM (inactive) | > 100 µM (inactive) | > 100 µM (inactive) | > 100 µM (inactive) | > 100 µM (inactive)
5 | COc1ccc2c3c1O[C@H](c1ccc(O)cc1)[C@H]3[N+](C)(C)CC2 | > 100 µM (inactive) | > 100 µM (inactive) | > 100 µM (inactive) | > 100 µM (inactive) | > 100 µM (inactive) | > 100 µM (inactive) | 86.3 µM (inactive) | > 100 µM (inactive) | > 100 µM (inactive) | > 100 µM (inactive) | 34.3 µM (inactive) | > 100 µM (inactive) | > 100 | 75.5 µM (inactive) | > 100 µM (inactive) | > 100 µM (inactive) | > 100 µM (inactive) | > 100 µM (inactive) | > 100 µM (inactive) | > 100 µM (inactive)
